{
  "source": "patent US20220168430A1",
  "about": "“THERAPEUTIC METHODS FOR TREATING HEPATITIS B” (priority 2019, published 2022)",
  "key": {"HBV genome": {"tested_on": "HBV genome", "test": "IC 50 of HBV siRNA duplexes (Table A)", "set-up": "species or system Hepatitis B virus", "details": "siRNA duplex"}, "HBV DNA [1]": {"tested_on": "HBV DNA", "test": "Serum HBV DNA in pHBV1.3 hydrodynamic injection mouse model of HBV (Example 12)", "format": "in vivo, NOD.CB17-Prkdc scid/J mice; HBV genotype D, serotype ayw", "details": "once daily oral from Day 0: RNA destabilizer 10 mg/kg, encapsidation inhibitor 100 mg/kg, nucleos(t)ide analog 0.4 mg/kg, group mean ± SEM, n=7 or 8, from negative control", "protocol": "(§1) On Day −7, 10 micrograms of the plasmid pHBV1.3 (constructed based on details provided in Guidotti, L., et al., Journal of Virology, 1995, 69(10): 6158-6169) was administered to NOD.CB 17-Prkdc^scid/J mice via hydrodynamic injection (HDI; rapid 1.6 mL injection into the tail vein). […] As readouts of the anti-HBV effect of the treatments, serum HBV DNA and serum HBsAg were assessed. Serum HBV DNA concentration in mice was measured using a quantitative PCR assay following total DNA extraction using previously published primers and probe sequences (Tanaka, Y., et al., Journal of Medical Virology, 2004, 72: 223-229). Serum HBsAg concentration in mice was measured using a commercially available ELISA kit (HBsAg EIA 3.0 480 Test Kit, Bio-Rad).\n(§2) Animals were treated with RNA destabilizer as follows: Starting on Day 0, a 10 mg/kg dosage of RNA destabilizer was administered orally to animals on a once-daily frequency for a total of seven doses across the duration of the study. Animals were treated with encapsidation inhibitor as follows: Starting on Day 0, a 100 mg/kg dosage of encapsidation inhibitor was administered orally to animals on a once-daily frequency for a total of seven doses across the duration of the study. Animals were treated with nucleos(t)ide analog as follows: Starting on Day 0, a 0.4 mg/kg dosage of nucleos(t)ide analog was administered orally to animals on a once-daily frequency for a total of seven doses across the duration of the study. The RNA destabilizer, the encapsidation inhibitor, and nucleos(t)ide analog were each dissolved in the same co-solvent formulation for administration and negative control animals were administered the co-solvent formulation alone. To calculate treatment-specific effects, the treated groups are compared against negative control (vehicle treated) animals.\n(§3) The effect of these treatments was determined by collecting blood on Days −1 (prior to study's treatment phase), 4, and 7 and analyzing it for serum HBV DNA and HBsAg content."}, "HBsAg [2]": {"tested_on": "HBsAg", "test": "Liver HBsAg by ELISA in AAV-HBV mouse model (Example 18)", "format": "in vivo, C57BL/6 mice; HBV serotype Ayw, genotype D", "details": "Study Day 42; siRNA 3 mg/kg s.c. Days 0 and 28, encapsidation inhibitor 100 mg/kg and/or TDF 1 mg/kg oral daily Days 0-41; group mean ± SEM, n=6", "protocol": "(§4) Prior to treatment start, 1×10^11 viral genomes of an adeno-associated virus (AAV) vector carrying a 1.3-fold overlength copy of an HBV genome (serotype Ayw, genotype D) was administered to C57BL/6 mice via intravenous injection. Introduction of this viral vector results in the expression of HBV DNA and HBV surface antigen (HBsAg) amongst other HBV products. Serum HBV DNA levels in mice was measured using a quantitative polymerase chain reaction (QPCR) assay, HBsAg in serum and liver of mice was measured using an enzyme-linked immunosorbent assay (ELISA), and anti-HBsAg antibodies were measured using ELISA.\n(§5) Treatment effects on serum HBV DNA were determined by collecting a small amount of blood on Days 0 (pre-treatment) and 14, as well as from terminal blood collections at Day 42. Treatment effects on HBsAg in serum and liver were determined from terminal sample collections at Day 42.\n(§6) Any individual animal samples measured to fall below assay lower limit of quantitation (LLOQ) were reported as the LLOQ value."}, "HBV DNA [3]": {"tested_on": "HBV DNA", "format": "in vivo, C57BL/6 mice; HBV serotype Ayw, genotype D", "details": "group mean ± SEM, n=6", "protocol": "as §4, §5, §6"}, "HBsAg [4]": {"tested_on": "HBsAg", "test": "Serum HBsAg in pHBV1.3 hydrodynamic injection mouse model of HBV (Example 12)", "format": "in vivo, NOD.CB17-Prkdc scid/J mice; HBV genotype D, serotype ayw", "details": "for Serum HBsAg log reduction: once daily oral from Day 0: RNA destabilizer 10 mg/kg, encapsidation inhibitor 100 mg/kg, nucleos(t)ide analog 0.4 mg/kg, group mean ± SEM, n=7 or 8, from negative control", "protocol": "as §1, §2, §3"}},
  "note": "Like-named read-outs stand apart in the source and are kept apart here.",
  "data": [
    {"compound": "13m: \"double stranded siRNA molecules selected from the group consisting of 1m, 2m, 3m ... 15m\" (sense GCCGAUCCAUACUGCGGAAUU; antisense UUCGGCUAGGUAUGACGCCUU; chemistry not fully specified; one strand is listed 3' to 5') [Compound 13m]", "values": [
      {"measurement": "IC50", "setting": "HBV genome", "result": 0.2, "unit": "nM"}
    ]},
    {"compound": "14m: \"double stranded siRNA molecules selected from the group consisting of 1m, 2m, 3m ... 15m\" (sense GCUCAGUUUACUAGUGCCAUU; antisense UUCGAGUCAAAUGAUCACGGU; chemistry not fully specified; one strand is listed 3' to 5') [Compound 14m]", "values": [
      {"measurement": "IC50", "setting": "HBV genome", "result": 0.16, "unit": "nM"}
    ]},
    {"compound": "Cn1cnc(COC(=O)N[C@H]2CCc3c(C(=O)Nc4ccc(F)c(Cl)c4)ccc(F)c32)n1", "note": "[Encapsidation Inhibitor]", "values": [
      {"measurement": "Serum HBV DNA log reduction", "setting": "HBV DNA [1]; Day 4", "result": "0.94 ± 0.07", "unit": "log"},
      {"measurement": "Serum HBV DNA log reduction", "setting": "HBV DNA [1]; Day 7", "result": "0.86 ± 0.12", "unit": "log"},
      {"measurement": "Liver HBsAg", "setting": "HBsAg [2]", "result": "2.03 ± 0.03", "unit": "log10 IU/mg liver protein"},
      {"measurement": "Serum HBV DNA", "setting": "HBV DNA [3]; Day 0 (pre-treatment)", "result": "4.45 ± 0.13", "unit": "log10 copies/microliter"},
      {"measurement": "Serum HBV DNA", "setting": "HBV DNA [3]; Day 14, siRNA 3 mg/kg s.c. Days 0 and 28, encapsidation inhibitor 100 mg/kg and/or TDF 1 mg/kg oral daily", "result": "3.89 ± 0.07", "unit": "log10 copies/microliter"},
      {"measurement": "Serum HBV DNA", "setting": "HBV DNA [3]; Day 42, siRNA 3 mg/kg s.c. Days 0 and 28, encapsidation inhibitor 100 mg/kg and/or TDF 1 mg/kg oral daily Days 0-41", "result": "4.49 ± 0.07", "unit": "log10 copies/microliter"},
      {"measurement": "Serum HBsAg log reduction", "setting": "HBsAg [4]; Day 4", "result": "−0.12 ± 0.03", "unit": "log"},
      {"measurement": "Serum HBsAg log reduction", "setting": "HBsAg [4]; Day 7", "result": "0.07 ± 0.04", "unit": "log"}
    ]},
    {"compound": "COCCCOc1cc2c(nc1OC)-c1cc(=O)c(C(=O)O)cn1[C@H](C(C)C)C2", "note": "[RNA destabilizer]", "values": [
      {"measurement": "Serum HBV DNA log reduction", "setting": "HBV DNA [1]; Day 4", "result": "0.48 ± 0.11", "unit": "log"},
      {"measurement": "Serum HBV DNA log reduction", "setting": "HBV DNA [1]; Day 7", "result": "0.48 ± 0.10", "unit": "log"},
      {"measurement": "Serum HBsAg log reduction", "setting": "HBsAg [4]; Day 4", "result": "0.75 ± 0.03", "unit": "log"},
      {"measurement": "Serum HBsAg log reduction", "setting": "HBsAg [4]; Day 7", "result": "0.86 ± 0.04", "unit": "log"},
      {"measurement": "effect on viral protein production (serum HBsAg biomarker)", "setting": "HBsAg [4]; mouse, once-daily oral, seven doses", "result": "reductive effect on viral protein production"}
    ]}
  ]
}
